Results taken from patent US20090221590A1, “SALT OF CD 80 ANTAGONIST” (MEDIGENE LIMITED, priority 2006, published 2009).
In brackets after ≈: the same amount, converted by molar mass.

Assay: Solubility Assay (saturation, shaker 24 hours, supernatant analysed by HPLC)
Settings: for Solubility (mg/ml) in ethanol: solvent ethanol; for Solubility (mg/ml) in ethanol / Solubility (mg/ml) in water: 25 deg C./60% relative humidity, 24 hours; for Solubility (mg/ml) in water: solvent water; for solubility at 24 h: 25 °C, thermodynamic from solid
Protocol: 10 mg of the test compound was weighed into a vial, and 1 ml of solvent was added. If the sample dissolved immediately, as evidenced by a formation of a clear solution, more of the test material was added and the vial sonicated for 15 mins. This procedure was repeated until no more test compound could be dissolved, as evidenced by formation of a suspension. The vial containing the suspension was then was sonicated for 15 mins, and placed on a shaker at 25 deg C./60% relative humidity for 24 hours. On removal from the shaker, the sample was centrifuged and the supernatant analysed by HPLC.

Solubility (mg/ml) in ethanol | Solubility (mg/ml) in water | solubility at 24 h (ethanol, organic solvent or mixture) | solubility at 24 h (water) | aqueous solubility (in words) (water, qualitative statement) | Molecule
<5 mg/mL | <5 mg/mL |  |  |  | [K+] [Potassium]
7.1 mg/mL | <5 mg/mL |  |  |  | Sodium
 |  | 2100 µg/mL (≈ 5.42 mM) | < 500 µg/mL | poorly soluble in water | O=C(NCC(F)F)c1ccc(-n2[nH]c3c(nnc4c(F)cccc43)c2=O)cc1 [None (free acid), 4-(6-fluoro-3-oxo-1,3-dihydro-pyrazolo[4,3-c]cinnolin-2-yl)-N-(2,2-difluoro-ethyl)-benzamide]

Molecule | Solubility (mg/ml) in ethanol | Solubility (mg/ml) in water | solubility at 24 h (ethanol, organic solvent or mixture) | solubility at 24 h (water) | aqueous solubility (in words) (water, qualitative statement)
[Mg] [Magnesium] | <5 mg/mL | <5 mg/mL |  |  | 
